Measurements as given in patent US20230044943A1, “Pharmaceutical Combinations” (ARRAY BIOPHARMA INC., priority 2016, published 2023).

Legend:
[1] = test system: HT-29 BRAF mutant colorectal cancer (CRC) xenograft tumor model; assay: Anti-tumor efficacy in HT-29 colon cancer xenograft model (study TRP-377-HT29-XEF); assay type: in vivo, female nude mice (Mus musculus); conditions: HT-29 xenograft, day 43 after 21 days of treatment; LGX818 20 mg/kg po qd, MEK162 3.5 mg/kg po bid, cetuximab 20 mg/kg ip 2qw
Experimental: (§1) Animals were weight at dosing day(s) and dose was body weight adjusted, dosing volume was 10 mL/kg. Tumor dimensions and body weights were collected at the time of randomization and twice weekly thereafter for the study duration. The following data were provided after each day of data collection: incidence of mortality, individual and group average body weights, and individual and group average tumor volume.
All data were expressed as mean±standard error of the mean (SEM). […] For all statistical evaluations, the level of significance was set at p<0.05. Significance compared to the vehicle control group is reported unless otherwise stated.

[2] = Tolerability (body weight change, adverse events) in study TRP-377-HT29-XEF; assay type: in vivo; conditions: mean ± SEM, day of maximum change in parentheses; HT-29 tumor-bearing nude mice; LGX818 20 mg/kg po qd, MEK162 3.5 mg/kg po bid, cetuximab 20 mg/kg ip 2qw
Experimental: Animal wellbeing and behavior, including grooming and ambulation were monitored twice daily. General health of mice was monitored and mortality recorded daily. Any moribund animals were sacrificed.
as §1
The % change in body was calculated as (BWcurrent−BWinitial)/(BWinitial)×100. Data is presented as percent body weight change from the day of treatment initiation.

[3] = Stability of test compound dosing formulation; assay type: physicochemical
Experimental: LGX818 was dissolved in 0.5% CMC/0.5% Tween 80.
MEK162 was dissolved in 1% CMC/0.5% Tween 80.

| SMILES | T/C (percent tumor volume change treated over control group) [1] [%] | % Maximum BW change (day) [2] | Stability of dosing formulation ([3]; dissolved in 0.5% CMC/0.5% Tween 80, room temperature) | Stability of dosing formulation ([3]; dissolved in 1% CMC/0.5% Tween 80, room temperature) |
| --- | --- | --- | --- | --- |
| COC(=O)N[C@@H](C)CNc1nccc(-c2cn(C(C)C)nc2-c2cc(Cl)cc(NS(C)(=O)=O)c2F)n1 [LGX818, methyl N-[(2S)-1-({4-[3-(5-chloro-2-fluoro-3-methanesulfonamidophenyl)-1-(propan-2-yl)-1H-pyrazol-4-yl]pyrimidin-2-yl}amino)propan-2-yl]carbamate] | 42 | −1.6 ± 0.98 (day 29) % | stable for at least one week | – |
| Cn1cnc2c(F)c(Nc3ccc(Br)cc3F)c(C(=O)NOCCO)cc21 [MEK162, 6-(4-bromo-2-fluorophenylamino)-7-fluoro-3-methyl-3H-benzoimidazole-5-carboxylic acid (2-hydroxyethoxy)-amide] | 28 | −4.1 ± 1.02 (day 29) % | – | stable for at least one week |
